Source: patent publication US20230233569A1 (Revolution Medicines, Inc., priority 2020, published 2023)
Read-outs that look alike come from different tables or passages of the source.

Tests used:
Assay in all cases: Ras-Raf disruption / FRET / MOA assay (BRAF RBD)
Format in all cases: biochemical
KRAS G12C = KRAS G12C (Homo sapiens, UniProt P01116+P62937, G12C); details: with Cyclophilin A
How it was run: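 His6-K-Ras G12C-GMPPNP (12.5 nM), GST-BRAF RBD (50 nM) and tagless Cyclophilin A (25 μM) incubated 3 h at 25 °C with compound (10-point 3-fold series from 30 μM), pH 7.3 HEPES buffer. Anti-His Eu/anti-GST APC added for 1.5 h; decreased TR-FRET ratio vs DMSO gives IC50.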

NRAS Q61R = NRAS Q61R (Homo sapiens, UniProt P01111+P62937, Q61R)
NRAS Q61R, sequence (P01111 whole entry Q61R): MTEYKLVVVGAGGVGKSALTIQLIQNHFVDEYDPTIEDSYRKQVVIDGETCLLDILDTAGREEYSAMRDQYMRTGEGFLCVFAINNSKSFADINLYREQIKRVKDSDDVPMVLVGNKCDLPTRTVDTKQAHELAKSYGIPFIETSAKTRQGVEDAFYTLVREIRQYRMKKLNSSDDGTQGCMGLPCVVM
NRAS Q61R, sequence (P62937 whole entry): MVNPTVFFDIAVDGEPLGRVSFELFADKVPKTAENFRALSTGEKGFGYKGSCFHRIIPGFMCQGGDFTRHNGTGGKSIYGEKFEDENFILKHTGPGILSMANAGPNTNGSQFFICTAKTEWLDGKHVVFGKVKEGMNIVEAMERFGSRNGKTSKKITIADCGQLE
How it was run: (§1)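 TR-FRET in 25 mM HEPES pH 7.3, 100 mM NaCl, 5 mM MgCl2, 0.1% BSA, 0.002% Tween20 with 25 μM Cyclophilin A, 12.5 nM His6-Ras-GMPPNP, 50 nM GST-BRAF RBD; compound 10-point 3-fold series from 30 μM. After 3 h at 25 °C, Eu anti-His/APC anti-GST added for 1.5 h; IC50 from ratio decrease versus DMSO.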

NRAS Q61K = NRAS Q61K (Homo sapiens, UniProt P01111+P62937, Q61K)
NRAS Q61K, sequence (P01111 whole entry Q61K): as the sequence (P01111 whole entry Q61R) above, with R61K counted along it
NRAS Q61K, sequence (P62937 whole entry): as the sequence (P62937 whole entry) above
How it was run: as §1

KRAS Q61H = KRAS Q61H (Homo sapiens, UniProt P01116+P62937, Q61H)
KRAS Q61H, sequence (P01116 1-169 isoform P01116-2 Q61H limits assumed): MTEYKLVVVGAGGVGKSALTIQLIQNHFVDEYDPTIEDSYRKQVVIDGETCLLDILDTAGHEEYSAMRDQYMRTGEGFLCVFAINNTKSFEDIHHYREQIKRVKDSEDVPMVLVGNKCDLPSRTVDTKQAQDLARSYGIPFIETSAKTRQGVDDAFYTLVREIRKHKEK
KRAS Q61H, sequence (P62937 whole entry): as the sequence (P62937 whole entry) above
How it was run: as §1

KRAS G13C = KRAS G13C (Homo sapiens, UniProt P01116+P62937, G13C); details: with Cyclophilin A
KRAS G13C, sequence (P01116 1-169 isoform P01116-2 G13C limits assumed): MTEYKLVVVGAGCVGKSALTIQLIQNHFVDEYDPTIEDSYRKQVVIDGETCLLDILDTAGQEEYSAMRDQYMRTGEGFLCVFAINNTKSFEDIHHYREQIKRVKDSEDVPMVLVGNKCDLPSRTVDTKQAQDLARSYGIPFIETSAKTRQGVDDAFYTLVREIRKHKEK
KRAS G13C, sequence (P62937 whole entry): as the sequence (P62937 whole entry) above
How it was run: as §1

NRAS G12C = NRAS G12C (Homo sapiens, UniProt P01111+P62937, G12C)
NRAS G12C, sequence (P01111 whole entry G12C): as the sequence (P01111 whole entry Q61R) above, with G12C, R61Q counted along it
NRAS G12C, sequence (P62937 whole entry): as the sequence (P62937 whole entry) above
How it was run: as §1

KRAS G12D = KRAS G12D (Homo sapiens, UniProt P01116+P62937, G12D); details: with Cyclophilin A
KRAS G12D, sequence (P01116 1-169 isoform P01116-2 G12D limits assumed): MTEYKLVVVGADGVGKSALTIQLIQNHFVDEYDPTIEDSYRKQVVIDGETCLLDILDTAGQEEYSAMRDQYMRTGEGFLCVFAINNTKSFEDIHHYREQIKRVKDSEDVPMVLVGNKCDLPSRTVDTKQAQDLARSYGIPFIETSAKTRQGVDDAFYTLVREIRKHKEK
KRAS G12D, sequence (P62937 whole entry): as the sequence (P62937 whole entry) above
How it was run: as §1

KRAS G12V = KRAS G12V (Homo sapiens, UniProt P01116+P62937, G12V); details: with Cyclophilin A
KRAS G12V, sequence (P01116 1-169 isoform P01116-2 G12V limits assumed): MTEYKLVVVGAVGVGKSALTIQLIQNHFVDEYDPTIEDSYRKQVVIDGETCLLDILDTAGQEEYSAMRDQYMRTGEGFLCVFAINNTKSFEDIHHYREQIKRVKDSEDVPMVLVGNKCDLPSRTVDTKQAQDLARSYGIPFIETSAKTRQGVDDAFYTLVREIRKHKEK
KRAS G12V, sequence (P62937 whole entry): as the sequence (P62937 whole entry) above
How it was run: as §1

NRAS WT = NRAS WT (Homo sapiens, UniProt P01111+P62937)
NRAS WT, sequence (P01111 whole entry): as the sequence (P01111 whole entry Q61R) above, with R61Q counted along it
NRAS WT, sequence (P62937 whole entry): as the sequence (P62937 whole entry) above
How it was run: as §1

KRAS WT = KRAS WT (Homo sapiens, UniProt P01116+P62937); details: with Cyclophilin A
KRAS WT, sequence (P01116 1-169 isoform P01116-2 limits assumed): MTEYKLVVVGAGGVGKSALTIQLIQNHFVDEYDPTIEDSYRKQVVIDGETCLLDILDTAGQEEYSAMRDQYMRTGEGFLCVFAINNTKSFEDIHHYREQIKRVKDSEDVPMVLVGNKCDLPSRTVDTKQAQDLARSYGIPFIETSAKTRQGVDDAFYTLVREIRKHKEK
KRAS WT, sequence (P62937 whole entry): as the sequence (P62937 whole entry) above
How it was run: as §1

KRAS G13D = KRAS G13D (Homo sapiens, UniProt P01116+P62937, G13D); details: with Cyclophilin A
KRAS G13D, sequence (P01116 1-169 isoform P01116-2 G13D limits assumed): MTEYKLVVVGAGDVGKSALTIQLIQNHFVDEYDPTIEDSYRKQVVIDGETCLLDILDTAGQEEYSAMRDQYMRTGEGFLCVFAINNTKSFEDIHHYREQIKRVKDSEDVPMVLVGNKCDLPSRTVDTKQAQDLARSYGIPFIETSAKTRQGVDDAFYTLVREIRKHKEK
KRAS G13D, sequence (P62937 whole entry): as the sequence (P62937 whole entry) above
How it was run: as §1

KRAS G12S = KRAS G12S (Homo sapiens, UniProt P01116+P62937, G12S); details: with Cyclophilin A
KRAS G12S, sequence (P01116 1-169 isoform P01116-2 G12S limits assumed): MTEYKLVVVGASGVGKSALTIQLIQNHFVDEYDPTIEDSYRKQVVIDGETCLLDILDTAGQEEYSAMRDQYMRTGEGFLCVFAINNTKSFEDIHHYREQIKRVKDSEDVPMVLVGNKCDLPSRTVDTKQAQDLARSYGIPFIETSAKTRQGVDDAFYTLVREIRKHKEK
KRAS G12S, sequence (P62937 whole entry): as the sequence (P62937 whole entry) above
How it was run: as §1

[1] = Ras-Raf disruption, read-out: KRAS G12C FRET data IC50
[2] = NRAS Q61R, read-out: NRAS Q61R FRET data IC50
[3] = NRAS Q61K, read-out: NRAS Q61K FRET data IC50
[4] = KRAS Q61H, read-out: KRAS Q61H FRET data IC50
[5] = Ras-Raf disruption, read-out: KRAS G13C FRET data IC50
[6] = NRAS G12C, read-out: NRAS G12C FRET data IC50
[7] = Ras-Raf disruption, read-out: KRAS G12D FRET data IC50
[8] = Ras-Raf disruption, read-out: KRAS G12V FRET data IC50
[9] = NRAS WT, read-out: NRAS WT FRET data IC50
[10] = Ras-Raf disruption, read-out: KRAS WT FRET data IC50
[11] = Ras-Raf disruption, read-out: KRAS G13D FRET data IC50
[12] = Ras-Raf disruption, read-out: KRAS G12S FRET data IC50
[13] = KRAS G12C FRET data IC50, Ras-Raf disruption
[14] = KRAS G13C FRET data IC50, Ras-Raf disruption
[15] = NRAS G12C FRET data IC50, NRAS G12C
[16] = KRAS G12D FRET data IC50, Ras-Raf disruption
[17] = KRAS G12V FRET data IC50, Ras-Raf disruption
[18] = KRAS WT FRET data IC50, Ras-Raf disruption
[19] = KRAS G13D FRET data IC50, Ras-Raf disruption
[20] = KRAS G12S FRET data IC50, Ras-Raf disruption

KRAS G12C, sequence (P01116 1-169 isoform P01116-2 G12C limits assumed): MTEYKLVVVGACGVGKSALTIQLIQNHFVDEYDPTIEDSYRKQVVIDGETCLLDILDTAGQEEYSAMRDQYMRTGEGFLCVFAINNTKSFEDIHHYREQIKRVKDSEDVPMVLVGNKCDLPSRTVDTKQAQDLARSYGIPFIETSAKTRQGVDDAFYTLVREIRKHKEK
KRAS G12C, sequence (P62937 whole entry): as the sequence (P62937 whole entry) above

## CCn1c(-c2cccnc2[C@H](C)OC)c2c3cc(ccc31)-c1csc(n1)C[C@H](NC(=O)[C@H](C(C)C)N(C)C(=O)N1CC[C@H]1CN(C)C(=O)[C@@H]1CN1)C(=O)N1CCC[C@H](N1)C(=O)OCC(C)(C)C2 [Example 235]
KRAS G12C; [1]
  IC50: 0.1 to 1 µM
NRAS Q61R; [2]
  IC50: 1 to 10 µM
NRAS Q61K; [3]
  IC50: 0.1 to 1 µM
KRAS Q61H; [4]
  IC50: 0.1 to 1 µM
KRAS G13C; [5]
  IC50: 1 to 10 µM
NRAS G12C; [6]
  IC50: 0.1 to 1 µM
KRAS G12D; [7]
  IC50: 1 to 10 µM
KRAS G12V; [8]
  IC50: 1 to 10 µM
NRAS WT; [9]
  IC50: 1 to 10 µM
KRAS WT; [10]
  IC50: 1 to 10 µM
KRAS G13D; [11]
  IC50: 1 to 10 µM
KRAS G12S; [12]
  IC50: 1 to 10 µM

## CCn1c(-c2cccnc2[C@H](C)OC)c2c3cc(ccc31)-c1cc(O)cc(c1)C[C@H](NC(=O)[C@H](C1CCCC1)N(C)C(=O)[C@@H](C)N(C)C(=O)[C@@H]1N[C@@H]1C1CC1)C(=O)N1CCC[C@H](N1)C(=O)OCC(C)(C)C2 [Example 327]
KRAS G12C; [13]
  IC50: 1 to 10 µM
NRAS Q61R
  IC50: > 10 µM
NRAS Q61K
  IC50: > 10 µM
KRAS Q61H
  IC50: 1 to 10 µM
KRAS G13C; [14]
  IC50: 1 to 10 µM
NRAS G12C; [15]
  IC50: 1 to 10 µM
KRAS G12D; [16]
  IC50: 1 to 10 µM
KRAS G12V; [17]
  IC50: > 10 µM
NRAS WT
  IC50: > 10 µM
KRAS WT; [18]
  IC50: 1 to 10 µM
KRAS G13D; [19]
  IC50: > 10 µM
KRAS G12S; [20]
  IC50: > 10 µM

## CCn1c(-c2cccnc2[C@H](C)OC)c2c3cc(ccc31)-c1cc(cc(C(F)F)c1)C[C@H](NC(=O)[C@H](C1CCCC1)N(C)C(=O)CN(C)C(=O)[C@@H]1N[C@@H]1C1CC1)C(=O)N1CCC[C@H](N1)C(=O)OCC(C)(C)C2 [Example 320]
KRAS G12C; [13]
  IC50: 0.1 to 1 µM
NRAS Q61R
  IC50: 1 to 10 µM
NRAS Q61K
  IC50: 1 to 10 µM
KRAS Q61H
  IC50: 0.1 to 1 µM
KRAS G13C; [14]
  IC50: 0.1 to 1 µM
NRAS G12C; [15]
  IC50: 0.1 to 1 µM
KRAS G12D; [16]
  IC50: 1 to 10 µM
KRAS G12V; [17]
  IC50: 1 to 10 µM
NRAS WT
  IC50: 1 to 10 µM
KRAS WT; [18]
  IC50: 1 to 10 µM
KRAS G13D; [19]
  IC50: 1 to 10 µM
KRAS G12S; [20]
  IC50: 1 to 10 µM

## CCn1c(-c2cccnc2[C@H](C)OC)c2c3cc(ccc31)-c1cc(O)cc(c1)C[C@H](NC(=O)[C@H](C(C)C)N(C)C(=O)[C@H]1CCN(C(=O)C3CO3)C1)C(=O)N1CCC[C@H](N1)C(=O)OCC(C)(C)C2 (stereo partly drawn) [Example 330]
KRAS G12C; [1]
  IC50: < 0.01 µM
NRAS Q61R; [2]
  IC50: 0.1 to 1 µM
NRAS Q61K; [3]
  IC50: 0.1 to 1 µM
KRAS Q61H; [4]
  IC50: 0.01 to 0.1 µM
KRAS G13C; [5]
  IC50: < 0.01 µM
NRAS G12C; [6]
  IC50: < 0.01 µM
KRAS G12D; [7]
  IC50: 0.01 to 0.1 µM
KRAS G12V; [8]
  IC50: 0.01 to 0.1 µM
NRAS WT; [9]
  IC50: 0.01 to 0.1 µM
KRAS WT; [10]
  IC50: 0.01 to 0.1 µM
KRAS G13D; [11]
  IC50: 0.01 to 0.1 µM
KRAS G12S; [12]
  IC50: 0.01 to 0.1 µM

## CCn1c(-c2cccnc2[C@H](C)OC)c2c3cc(ccc31)-c1cc(O)cc(c1)C[C@H](NC(=O)[C@H](C(C)C)N(C)C(=O)[C@H]1C[C@H](NC(=O)[C@@H]3CN3)C1)C(=O)N1CCC[C@H](N1)C(=O)OCC(C)(C)C2 [Example 167]
KRAS G12C; [1]
  IC50: < 0.01 µM
NRAS Q61R; [2]
  IC50: 0.1 to 1 µM
NRAS Q61K; [3]
  IC50: 0.01 to 0.1 µM
KRAS Q61H; [4]
  IC50: 0.01 to 0.1 µM
KRAS G13C; [5]
  IC50: 0.01 to 0.1 µM
NRAS G12C; [6]
  IC50: < 0.01 µM
KRAS G12D; [7]
  IC50: 0.01 to 0.1 µM
KRAS G12V; [8]
  IC50: 0.01 to 0.1 µM
NRAS WT; [9]
  IC50: 0.01 to 0.1 µM
KRAS WT; [10]
  IC50: 0.01 to 0.1 µM
KRAS G13D; [11]
  IC50: 0.01 to 0.1 µM
KRAS G12S; [12]
  IC50: 0.01 to 0.1 µM

## CCn1c(-c2cccnc2[C@H](C)OC)c2c3cc(ccc31)-c1cc(O)cc(c1)C[C@H](NC(=O)[C@H](C(C)C)N(C)C(=O)CN(C)S(=O)(=O)[C@H]1CN1C)C(=O)N1CCC[C@H](N1)C(=O)OCC(C)(C)C2 (single isomer, unassigned) [Example 91]
KRAS G12C; [1]
  IC50: 0.01 to 0.1 µM
NRAS Q61R; [2]
  IC50: 0.1 to 1 µM
NRAS Q61K; [3]
  IC50: 0.1 to 1 µM
KRAS Q61H; [4]
  IC50: 0.01 to 0.1 µM
KRAS G13C; [5]
  IC50: 0.01 to 0.1 µM
NRAS G12C; [6]
  IC50: 0.01 to 0.1 µM
KRAS G12D; [7]
  IC50: 0.1 to 1 µM
KRAS G12V; [8]
  IC50: 0.1 to 1 µM
NRAS WT; [9]
  IC50: 0.01 to 0.1 µM
KRAS WT; [10]
  IC50: 0.01 to 0.1 µM
KRAS G13D; [11]
  IC50: 0.1 to 1 µM
KRAS G12S; [12]
  IC50: 0.01 to 0.1 µM
